Test results published in PubChem BioAssay AID2305 (GlaxoSmithKline (GSK), 2010).
“And” between values parts separate entries of the source, which are not always exact repeats. Equal values may be shown once.

What follows are molecules tested on P. falciparum 3D7 growth, pLDH absorbance (assay: P. falciparum 3D7 growth inhibition, dose response, strain 3D7 (AID 2305)).
`Cc1ccc(C(=O)N2CCN(Cc3nccs3)CC2)cc1` gave an IC50 of 1010 nM.
`CC(C)(C)Oc1ccc(CC2NC3(C(=O)N(Cc4ccc(C(C)(C)C)cc4)c4ccccc43)C3C(=O)N(c4ccc(Br)cc4)C(=O)C23)cc1` (stereo not given) showed an IC50 of 720 nM.
Molecule `CN1CCN(c2nc(NCCc3ccc(O)cc3)nc(NCc3ccccc3-c3ccc(C(F)(F)F)cc3)n2)CC1` has an IC50 of 970 nM.
With `CS(=O)(=O)Nc1ccc2[nH]cc(C3CCN(CC(O)C4CCN(C(=O)/C=C/c5ccc(Cl)c(Cl)c5)CC4)CC3)c2c1` (stereo not given) the IC50 was 1760 nM.
`COc1cc(CNCCC(C)C)ccc1OCc1cccc(COc2ccc(CNCCC(C)C)cc2OC)c1` gave an IC50 of 490 nM.
With `CCN(CC)CCN(Cc1ccc(-c2ccc(C(F)(F)F)cc2)cc1)C(=O)Cn1c(CCc2cccc(F)c2F)nc(=O)c2ccccc21` the IC50 was 670 nM.
With `COc1ccc(-c2ccnc(-c3cccc(-c4ccccn4)n3)c2)cc1` the IC50 was 820 nM.
In the case of `CC(Cl)=CCc1c(C)[nH]c2c(ccc3ccccc32)c1=O`, the IC50 is reported as 200 nM.
Molecule `CN(C)CCCn1cncc1-c1ccc2ncnc(Nc3ccc4c(cnn4Cc4ccccc4)c3)c2c1` has an IC50 of 730 nM.
For `COc1ccc2c(OC)ccc(CNCCCCCCNCc3ccc(OC)c4ccc(OC)cc34)c2c1`, the IC50 was 400 nM.
In the case of `Oc1ccc(Cc2ccccc2)cc1CNC1CCCCC1`, the IC50 is reported as 190 nM.
`CC(=O)Nc1nc(C(=O)Nc2cccc(-c3ccc(-c4nc5c(C)cccc5[nH]4)s3)c2)cs1` showed an IC50 of 220 nM.
In the case of `COc1ccc(CN2CCN(C(=O)c3cccs3)CC2)c(O)c1`, the IC50 is reported as 840 nM.
In the case of `Cc1nccc2c(NC(=O)N[C@@H]3CCN(c4ncc(C(F)(F)F)cc4Br)C3)cccc12`, the IC50 is reported as 360 nM.
With `O=C(Nc1ccccc1)Nc1cccc(-c2cc(CNCCc3ccccc3)sc2-c2ccncc2)c1` the IC50 was 600 nM.
Molecule `CCCCCCCCc1c(C)[nH]c(C)c(C#N)c1=O` has an IC50 of 400 nM.
With `CC(Cc1ccc(C(=O)N2CCN(C(=O)c3ccc(CC(C)NCCc4cccc(Cl)c4)cc3)CC2)cc1)NCCc1cccc(Cl)c1` (stereo not given) the IC50 was 680 nM.
In the case of `CCOc1ccc(-c2nc(NC(=O)COc3ccc(OC)cc3)sc2C)cc1`, the IC50 is reported as 540 nM.
For `N#Cc1cc(C(=O)c2cc(Br)ccc2O)cn(-c2cc(Cl)cc(Cl)c2)c1=O`, the IC50 was 880 nM.
In the case of `CCCN(C(=O)c1ccccc1C)c1nnc(-c2ccccc2C)s1`, the IC50 is reported as 1110 nM.
`N#Cc1cnc(Nc2ccc(Oc3ccccc3)cc2)nc1Nc1cccc(S(N)(=O)=O)c1` showed an IC50 of 550 nM.
`CCCCN(CCCC)CCCCNc1c2ccc(Cl)cc2nc2ccc(OC)cc12` gave an IC50 of 180 nM.
Molecule `Nc1nc(N)c2c(ccc3c2ccn3C2CCCCC2)n1` has an IC50 of 120 nM.
`CC(C)(C)OC(=O)NCCc1cccc(-c2c[nH]c3ncc(-c4cccc(NS(C)(=O)=O)c4)cc23)c1` gave an IC50 of 680 nM.
For `CCc1cccc(C)c1-n1nc(-c2cc(C(C)(C)C)oc2C)cc1N`, the IC50 was 660 nM.
`O=C(Nc1ccnc2ccccc12)NC1CCN(CCc2ccccc2)CC1` showed an IC50 of 360 nM.
For `CN1Cc2cc(NC(=O)/C=C/c3ccccc3Cl)ccc2C(C)(C)C1`, the IC50 was 640 nM.
For `O=C(NCC1CCC(C(=O)NC2CCCc3ccccc32)CC1)c1ccc(O)c(-c2ccc(Cl)c(Cl)c2)c1` (stereo not given), the IC50 was 1020 nM.
Work on `COc1ccccc1CCN1CCC(CN(C)Cc2ccc(O)c(Cl)c2)CC1` yielded an IC50 of 330 nM.
For `CCc1cn(C)c2c(N3CCCC3=O)cc(C(=O)N[C@@H](Cc3ccccc3)[C@H](O)CNC3CCCCC3)cc12`, the IC50 was 120 nM.
Molecule `CNCCCCCCc1ccc(CC(C)NCC(O)c2cccc(Cl)c2)cc1` (stereo not given) has an IC50 of 850 nM.
With `O=C(NC(c1ccc(Cl)cc1)c1ccc2cccnc2c1O)c1ccccc1` (stereo not given) the IC50 was 560 nM.
In the case of `CCc1ccc(NC(=O)c2cccc(CN3CCCN(CC4CCCCC4)CC3)c2)cc1`, the IC50 is reported as 950 nM.
`O=C(NCCCCN1CCC(c2ccc3c(c2OCc2ccncc2)CCCC3)CC1)c1ccc(NC(=O)c2ccc(Cl)cc2)cc1` showed an IC50 of 220 nM.
`COc1ccc2nc(C)cc(Nc3ccc(Cl)cc3)c2c1` was tested, and the IC50 was 950 nM.
Work on `COc1cc(Nc2nccc(N3CCC(NC(=O)Nc4cc(C)ccc4C)C3)n2)cc(OC)c1OC` (stereo not given) yielded an IC50 of 1120 nM.
`CC[C@H](C)CNC(=O)c1cccc(-c2cccc(CN3CCC(N4CCCC4)CC3)c2)n1` was tested, and the IC50 was 710 nM.
`CSc1ccccc1NC(=S)NC1CCN(CCCCCNC(=O)/C=C/c2ccc(Cl)c(Cl)c2)CC1` gave an IC50 of 780 nM.
Work on `CC(C)C[C@H]1c2[nH]c3ccc(Cl)cc3c2CCN1C(=O)CCc1ccccc1` yielded an IC50 of 880 nM.
Molecule `CCCCN(CCCC)Cc1cc(N(C)c2ccc([N+](=O)[O-])cn2)ccc1O` has an IC50 of 540 nM.
Work on `Cc1c(OC(C)C)nc2ccccc2c1C(=O)N[C@H](c1cccc(F)c1)C1CC1` yielded an IC50 of 1090 nM.
`COc1cccc(Nc2nc(C)cc(NCc3ccc(-c4c(C)noc4C)cc3)n2)c1` showed an IC50 of 880 nM.
Work on `CCOC(=O)c1c(C)n(C2CCCCCC2)c2cc(Br)c(O)cc12` yielded an IC50 of 1200 nM.
`O=C(Nc1ccc(Cn2ncc(N3CCCNCC3)c(Cl)c2=O)cc1)Nc1ccc(-c2ccccc2)cc1` was tested, and the IC50 was 820 nM and 800 nM.
`Cc1cc(NCCC(=O)NCc2cccc(F)c2)nc(Nc2ccccc2)n1` was tested, and the IC50 was 1050 nM.
`Cc1ccc(/C=C/C(=O)NCCCCCN2CCC(c3c[nH]c4ccccc34)CC2)cc1` was tested, and the IC50 was 1010 nM.
`O=c1[nH]c2ccc(Nc3nccc(NCCc4ccccc4)n3)cc2[nH]1` showed an IC50 of 1210 nM.
With `COc1cccc2c(NCc3ccccc3)nc(NCCCN3CCCCC3C)nc12` (stereo not given) the IC50 was 910 nM.
In the case of `FC(F)(F)c1ccc(CSc2ccc3nnc(-c4ccccn4)n3n2)cc1`, the IC50 is reported as 820 nM.
Molecule `O=c1cc(NCCCNCc2ccc(Cl)c(Cl)c2)[nH]c2ccc(Cl)cc12` has an IC50 of 340 nM.
